Assay results published in ChEMBL document CHEMBL1201862, “PubChem BioAssay data set” (2004).
The source made the active and inactive calls.

Key:
[1] = viability of HCT116 lacking mutant beta-catenin – cell-based, human colon tumor, dose response (AID 1045); assay type: functional;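 also: HCT116 colon tumor cells with beta catenin knocked out; cells exposed to compound for 60 hours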
[2] = biological target: G-protein coupled receptor 55 (Homo sapiens, UniProt Q9Y2T6); experiment: inhibition of LPI-stimulated GPR55 beta-arrestin translocation – imaging, U2OS, beta-arrestin-GFP, LPI agonist, primary screen (AID 2013); assay type: functional;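 also: antagonist potency measured as reduced agonist-driven arrestin aggregation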
Chain of G-protein coupled receptor 55 (Q9Y2T6 whole entry): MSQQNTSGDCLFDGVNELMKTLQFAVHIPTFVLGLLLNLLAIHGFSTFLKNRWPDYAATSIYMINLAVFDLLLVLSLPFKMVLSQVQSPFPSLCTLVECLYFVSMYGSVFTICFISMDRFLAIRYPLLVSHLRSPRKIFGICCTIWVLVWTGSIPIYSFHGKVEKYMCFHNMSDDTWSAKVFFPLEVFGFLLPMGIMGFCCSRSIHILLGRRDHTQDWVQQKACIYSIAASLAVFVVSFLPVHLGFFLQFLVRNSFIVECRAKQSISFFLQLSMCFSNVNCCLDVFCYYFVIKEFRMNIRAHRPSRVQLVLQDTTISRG

[3] = viability of PTEN-deleted HCT116 cells – cell-based, HCT116 PTEN knockout, dose response (AID 1047); assay type: functional;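 also: HCT116 colon tumor cells with PTEN knocked out; cells exposed to compound for 60 hours before readout; potency for loss of cell viability measured by luminescence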
[4] = biological target: T1, Ubiquitin-conjugating enzyme E2 N (Homo sapiens, UniProt P61088); assay type: functional
T1 sequence (P61088 whole entry): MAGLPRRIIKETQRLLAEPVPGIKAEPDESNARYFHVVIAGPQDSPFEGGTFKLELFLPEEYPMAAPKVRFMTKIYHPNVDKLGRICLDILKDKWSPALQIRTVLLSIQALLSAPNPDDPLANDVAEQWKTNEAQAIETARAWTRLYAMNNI

[5] = biological target: T2, Heat shock factor protein 1 (Mus musculus, UniProt P38532); experiment: decrease of HSF1-responsive luciferase luminescence – cell-based, NIH3T3, dose retest, confirmation (AID 2382); assay type: functional;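 also: NIH3T3 fibroblasts with HSF1-driven luciferase reporter stressed by proteasome inhibitor MG132; luminescence from HSF1-driven luciferase expression after 8 hours of MG132 stress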
T2 sequence (P38532 whole entry): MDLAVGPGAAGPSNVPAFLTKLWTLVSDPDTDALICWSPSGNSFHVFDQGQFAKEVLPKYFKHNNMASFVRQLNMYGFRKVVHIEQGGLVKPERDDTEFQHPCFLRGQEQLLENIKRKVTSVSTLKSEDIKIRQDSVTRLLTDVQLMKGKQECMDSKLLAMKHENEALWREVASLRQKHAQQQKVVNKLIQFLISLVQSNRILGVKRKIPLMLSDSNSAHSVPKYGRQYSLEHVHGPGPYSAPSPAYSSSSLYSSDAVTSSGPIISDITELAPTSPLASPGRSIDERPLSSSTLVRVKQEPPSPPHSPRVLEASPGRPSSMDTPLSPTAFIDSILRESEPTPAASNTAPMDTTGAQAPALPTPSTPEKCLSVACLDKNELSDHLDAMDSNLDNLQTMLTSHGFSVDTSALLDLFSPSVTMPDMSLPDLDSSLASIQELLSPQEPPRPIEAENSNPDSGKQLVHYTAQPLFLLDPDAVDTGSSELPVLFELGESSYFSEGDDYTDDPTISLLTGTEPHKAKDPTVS

Bcl-2-related protein A1 = biological target: T3, Bcl-2-related protein A1 (Mus musculus, UniProt Q07440); assay type: functional;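 also: confirmatory dose–response counterscreen on Bfl-1, used to check hits from a UBC13 polyubiquitin inhibitor campaign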
T3 sequence (Q07440 whole entry): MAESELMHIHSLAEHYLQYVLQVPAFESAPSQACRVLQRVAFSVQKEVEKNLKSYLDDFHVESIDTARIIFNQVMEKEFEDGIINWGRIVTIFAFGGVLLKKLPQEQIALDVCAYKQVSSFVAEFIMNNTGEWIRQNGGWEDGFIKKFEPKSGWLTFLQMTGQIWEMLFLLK

[6] = biological target: T1, Ubiquitin-conjugating enzyme E2 N; assay type: functional; remark: listed apart in the source
INS1 = experiment: INS-1E survival protection against cytokine death – cell-based, luminescence, retest, dose response (AID 449756); assay type: functional; settings: Rattus norvegicus;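 also: cell death triggered by IL-1 beta plus TNF-alpha plus IFN-gamma mixture; protective hits raise ATP signal compared with cytokine alone wells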
[7] = bead-based luminescence quenchers, dual-tagged ARNT – biochemical, AlphaScreen, cherry-pick, artefact control for ARNT-TACC3 interaction inhibitor project, dose response (AID 651705); assay type: functional;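 also: AlphaScreen bead proximity signal that flags compounds interfering with the detection technology; potency reflects signal decrease which marks the compound as an assay artifact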
[8] = Vero E6 cell cytotoxicity, dose response, cytotoxicity control for non-replicating M. tuberculosis project, secondary assay (AID 492998); assay type: functional, VeroE6; settings: Vero C1008
cells = assay type: functional
[9] = biological target: T4, Endoribonuclease toxin MazF (Escherichia coli K-12, UniProt P0AE70); experiment: activation of MazEF endoribonuclease cleavage – biochemical, fluorescence, single-stranded RNA substrate, uHTS hits, dose response (AID 588481); assay type: functional
T4 sequence (P0AE70 whole entry): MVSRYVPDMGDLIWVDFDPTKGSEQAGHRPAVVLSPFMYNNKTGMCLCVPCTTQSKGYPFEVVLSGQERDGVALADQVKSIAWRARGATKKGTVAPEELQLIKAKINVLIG

[10] = biological target: T4, Endoribonuclease toxin MazF; experiment: substrate-only fluorescence increase artefacts – biochemical, single-stranded RNase substrate, counter-screen for MazEF activator project, dose response (AID 588502); assay type: functional
[11] = biological target: T5, Probable nicotinate-nucleotide adenylyltransferase (Staphylococcus aureus (strain N315), UniProt P65502); assay type: functional, Staphylococcus aureus subsp. aureus N315;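 as to IC50 Mean: confirmatory dose-response retesting of NadD inhibitor hits first found in an ultra-high-throughput screen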
T5 sequence (P65502 whole entry): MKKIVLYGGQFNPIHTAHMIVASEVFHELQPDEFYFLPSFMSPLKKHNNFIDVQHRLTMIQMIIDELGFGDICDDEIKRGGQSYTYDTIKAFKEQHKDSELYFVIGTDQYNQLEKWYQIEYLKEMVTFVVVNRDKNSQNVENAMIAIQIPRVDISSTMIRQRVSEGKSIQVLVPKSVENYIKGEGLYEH

[12] = biological target: T6, Small ubiquitin-related modifier 1 (Homo sapiens, UniProt P63165); experiment: SUMO1 protein interaction blockers, potency – biochemical, fluorescence polarization, uHTS hits, dose response (AID 624382); assay type: functional; settings: read-out: IC50_Mean
T6 sequence (P63165 whole entry): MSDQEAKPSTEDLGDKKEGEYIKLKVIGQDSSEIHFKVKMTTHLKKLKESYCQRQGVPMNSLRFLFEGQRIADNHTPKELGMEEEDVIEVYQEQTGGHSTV

[13] = biological target: T6, Small ubiquitin-related modifier 1; experiment: SUMO1 protein-protein binding blockers, potency – biochemical, FRET, dose response (AID 624383); assay type: functional; settings: read-out: IC50_Mean
[14] = biological target: T5, Probable nicotinate-nucleotide adenylyltransferase; assay type: functional, Staphylococcus aureus subsp. aureus N315; settings: read-out: IC50_Mean

## COc1ccc(OCC(O)Cn2c(=N)n(Cc3ccccc3)c3ccccc32)cc1 (stereo unspecified)
[1]
  EC50: 7.38 µM (active)
[2]
  IC50: 3.61 µM (active)
[3]
  EC50: 7.31 µM (active)

## CCN1CCN(Cc2ccc(NC(=O)c3cc(NC(=O)c4cncc(-c5ccc(C#N)cc5)c4)cc(OC)c3)cc2C(F)(F)F)CC1
[4]
  IC50: 6.69 µM (active)
[5]
  EC50: > 195 µM (not active)
Bcl-2-related protein A1
  IC50: 8.76 µM (active)
[6]
  IC50: 10.9 µM (active)
INS1
  AC50: 8.2 µM (active)

## NCCc1c[nH]cn1 [HISTAMINE]
[7]
  AC50: 106 µM (active)

## O=C(Nc1nnc(-c2ccccc2Cl)o1)c1cccnc1
[7]
  AC50: 91.9 µM (active)
[8]
  CC50: > 20 µM (active)
cells
  IC50: 8.68 µM (active)

## O=c1[nH]cnc2scc(-c3ccc(-c4ccccc4)cc3)c12
[9]
  EC50: > 99 µM (inactive)
[10]
  EC50: > 99 µM (inactive)

## CCOC(=O)c1c(NC(=O)C2=C(C)N=C(S)NC2c2ccc(CC)cc2)sc(C)c1C (stereo unspecified)
[2]
  IC50: 1.64 µM (active)

## CC(C)C[C@@H](CNCC(=O)[C@H](CC(=O)O)NC(=O)c1nc[nH]c1C(=O)N[C@H](CN)CC(C)C)NC(=O)c1[nH]cnc1C(=O)N[C@@H](Cc1ccccc1)C(=O)O
[11]
  IC50: 12.4 µM (active)
[12]
  IC50: 50.1 µM (inactive)
[13]
  IC50: 5.92 µM (active)
[14]
  IC50: 44 µM (active)

## C#CCN1c2ccccc2Sc2cccnc21
[9]
  EC50: > 99 µM (inactive)
[10]
  EC50: 85.6 µM (inactive)
